Laboratory results from patent publication US6444812B1, “Intermediate compounds in the preparation of farnnesyl transferase inhibiting 1,8-annelated quinolinone derivatives substituted with N-or C linked imidazoles” (Janssen Pharmaceutica N.V., priority 1997, dated 2002).

Experiments:
[1] = target: T1, Human farnesyl protein transferase (Homo sapiens, UniProt P49354+P49356); test: In Vitro Assay for Inhibition of Farnesyl Protein Transferase (scintillation proximity assay); format: biochemical; conditions: concentration of test compound producing 50% inhibition of enzyme activity; 60 min at 37° C.
T1 construct: grown as monolayer cell cultures were used as a source of human enzyme; endogenous in cells; host or cells: KHOS (Kirsten virus transformed human osteosarcoma) cells from ATCC, grown as solid tumors in nude mice or as monolayer cultures; The enzyme was partially purified by a 30-50% ammonium sulfate cut and Q Fast Flow Sepharose
Description: “In Vitro Assay for Inhibition of Farnesyl Protein Transferase”
Human farnesyl protein transferase was prepared essentially as described (Y. Reiss et al., Methods: A Companion to Methods in Enzymology, vol. 1, 241-245, 1990). Kirsten virus transformed human osteosarcoma (KHOS) cells (American Type Culture Collection, Rockville, Md., USA) grown as solid tumors in nude mice or grown as monolayer cell cultures were used as a source of human enzyme. Briefly, cells or tumors were homogenized in buffer containing 50 mM Tris, 1 mM EDTA, 1 mM EGTA and 0.2 mM phenylmethylsulfonylfluoride (pH 7.5). The homogenates were centrifuged 28,000×g for 60 min and the supernatants collected. […] Fractions containing 4 to 5 ml volumes of column eluate were collected and analyzed for farnesyl protein transferase activity. […]
The activity of farnesyl protein transferase was measured using the Farnesyl Transferase [^3H] […] The amount of [^3H]-farnesyl-(Cys)-biotin lamin B peptide synthesized in the presence or absence of test compounds was quantified as cpm by counting on a Wallac Model 1480 Microbeta Liquid Scintillation Counter. […] The protein farnesyl transferase activity observed in the presence of test compound was normalized to farnesyl transferase activity in the presence of 10% DMSO and expressed as percent inhibition. […]

[2] = system: NIH 3T3 cells transformed by the T24 activated human H-ras gene; test: Ras-Transformed Cell Phenotype Reversion Assay; format: cell-based, mouse; conditions: cell counts after 72 hours proliferation
Description: “Ras-Transformed Cell Phenotype Reversion Assay”
Insertion of activated oncogenes such as the mutant ras gene into mouse NIH 3T3 cells converts the cells to a transformed phenotype. The cells become tumorigenic, display anchorage independent growth in semi-solid medium and lose contact inhibition. Loss of contact inhibition produces cell cultures which no longer form uniform monolayers. Rather, the cells pile up into multicellular nodules and grow to very high saturation densities in plastic tissue culture dishes. Agents such as protein farnesyl transferase inhibitors which revert the ras transformed phenotype restore the uniform monolayer growth pattern to cells in culture. This reversion is easily monitored by counting the number of cells in tissue culture plates. Transformed cells will achieve higher cell numbers than cells which have reverted to an untransformed phenotype. Compounds which revert the transformed phenotype should produce antitumor effects in tumors bearing ras gene mutations.
Compounds are screened in tissue culture in NIH 3T3 cells transformed by the T24 activated human H-ras gene. Cells are seeded at an initial density of 200,000 cells per well (9.6 cm^2 surface area) in six-well cluster tissue culture plates. Test compounds are immediately added to 3.0 ml cell growth medium in a 3.0 μl volume of DMSO, with a final concentration of DMSO in the cell growth medium of 0.1%. The test compounds are run at concentrations of 5, 10, 50, 100, and 500 nM along with a DMSO treated vehicle control. […] Then the cells are detached in 1.0 ml trypsin-EDTA cell dissociation medium and counted on a Coulter particle counter.
Cell numbers expressed as cells per well are measured using a Coulter Particle Counter.
All cell counts were corrected for the initial cell input density by subtracting 200,000.
Control cell counts=[cell counts from cells incubated with DMSO vehicle−200,000]
Test compound cell counts=[cell counts from cells incubated with test compound−200,000]. [formula]

[3] = system: T24 activated human H-ras gene transformed NIH 3T3 fibroblast cells (T24 cells); test: Farnesyl Protein Transferase Inhibitor Secondary Tumor Model; format: in vivo, Nude mice; conditions: po, 15 days of treatment
Description: “Farnesyl Protein Transferase Inhibitor Secondary Tumor Model”
The enzyme farnesyl protein transferase catalyzes the covalent attachment of a farnesyl moiety derived from farnesyl pyrophosphate to the oncogene product p21^ras. This directs p21^ras to attach to plasma membranes. Once attached to plasma membranes, mutant or oncogenic forms of p21^ras will provide a signal for the transformation and uncontrolled growth of malignant tumor cells. Therefore, inhibitors of protein farnesyltransferase will prevent the membrane attachment of p21^ras and inhibit growth of ras-transformed tumors.
Nude mice are inoculated with 1×10^6 of T24 activated human H-ras gene transformed NIH 3T3 fibroblast cells (T24 cells), subcutaneously in the inguinal region. After three days to allow tumors to become established, treatment with test compounds is begun via the oral route. The test compounds are dissolved in a 20% β-cyclodextrin in 0.1 N HCl solution and administered orally as 0.1 ml of compound solution per 10 g mouse body weight. Routinely used doses are 6.25, 12.5 and 25 mg/kg. Body weights and tumor sizes are monitored during the ensuing 15 days of treatment. At the end of treatment, animals are sacrificed and tumors are weighed.
The “mean vehicle treated tumor weight” is defined as the mean tumor weight from 10 to 15 mice […].
The “mean tumor weight” is defined as the mean tumor weight from 10 to 15 mice […]. [formula]

Row | Compound | IC50 ([2]; NIH3T3) | melting point | also measured
1 | O=c1cc(-c2cccc(Cl)c2)c2cc(C(c3ccc(Cl)cc3)n3ccnc3)cc3c2n1CC3 (centres unmarked) [Compound 38] |  |  | IC50 [1]: 15 nM
2 | Cn1cncc1C(O)(c1ccc(Cl)cc1)c1cc2nnn3c(=O)cc(-c4cccc(Cl)c4)c(c1)c23 (racemic) [Compound 35, (±)-6-(3-chlorophenyl)-8-[(4-chlorophenyl)hydroxy(1-methyl-1H-imidazol-5-yl)methyl]-4H-1,2,3-triazolo[4,5,1-ij]quinolin-4-one] | > 500 nM | 226 °C | 
3 | Cn1cncc1C(N)(c1ccc(Cl)cc1)c1cc2c3c(c1)c(-c1cccc(Cl)c1)cc(=O)n3CC2 (racemic) [Compound 8, (±)-8-[amino(4-chlorophenyl)(1-methyl-1H-imidazol-5-yl)methyl]-6-(3-chlorophenyl)-1,2-dihydro-4H-pyrrolo[3,2,1-ij]quinolin-4-one] | 6.4 nM |  | % reduction final tumor weight ([3]; 6.25 mg/kg bid): 41%; % reduction final tumor weight ([3]; 12.25 mg/kg bid): 44%; % reduction final tumor weight ([3]; 25 mg/kg bid): 49%
4 | Cn1cncc1C(O)(c1ccc(Cl)cc1)c1cc2[nH]c(=O)n3c(=O)cc(-c4cccc(Cl)c4)c(c1)c23 (racemic) [Compound 34, (±)-6-(3-chlorophenyl)-8-[(4-chlorophenyl)hydroxy(1-methyl-1H-imidzol-5-yl)methyl]-4H-imidazo[4,5,1-ij]quinoline-2,4(1H)-dione] |  |  | IC50 [2]: > 500 nM
5 | Cn1cncc1C(O)(c1ccc(Cl)cc1)c1cc2nc(-c3ccccc3)n3c(=O)cc(-c4cccc(Cl)c4)c(c1)c23 (racemic) [Compound 31, (±)-6-(3-chlorophenyl)-8-[(4-chlorophenyl)hydroxy(1-methyl-1H-imidazol-5-yl)methyl]-2-phenyl-4H-imidazo[4,5,1-ij]quinolin-4-one] | > 500 nM |  | 
6 | Cc1nc2cc(C(O)(c3ccc(Cl)cc3)c3cncn3C)cc3c(-c4cccc(Cl)c4)cc(=O)n1c23 (racemic) [Compound 30, (±)-6-(3-chlorophenyl)-8-[(4-chlorophenyl)hydroxy(1-methyl-1H-imidazol-5-yl)methyl]-2-methyl-4H-imidazo[4,5,1-ij]quinolin-4-one] | 373 nM | 170 °C | 
7 | Cn1cncc1C(c1ccc(Cl)cc1)c1cc2c3c(c1)c(-c1cccc(Cl)c1)cc(=O)n3CC2 (racemic) [Compound 6, (±)-6-(3-chlorophenyl)-8-[(4-chlorophenyl)(1-methyl-1H-imidazol-5-yl)methyl]-1,2-dihydro-4H-pyrrolo[3,2,1-ij]quinolin-4-one monohydrate] | 32 nM |  | 
8 | Cn1cncc1C(O)(c1ccc(Cl)cc1)c1cc2c3c(c1)c(-c1cccc(Cl)c1)cc(=O)n3CO2 (racemic) [Compound 15, (±)-6-(3-chlorophenyl)-8-[(4-chlorophenyl)hydroxy(1-methyl-1H-imidazol-5-yl)methyl]-2H,4H-oxazolo[5,4,3-ij]quinolin-4-one] | 48 nM |  | 
9 | O=C1CC(c2cccc(Cl)c2)c2cc(C(c3ccc(Cl)cc3)n3ccnc3)cc3c2N1CCC3 (racemic) [Compound 37, (±)-7-(3-chlorophenyl)-9-[(4-chlorophenyl)-1H-imidazol-1-ylmethyl]-2,3,6,7-tetrahydro-1H,5H-benzo[ij]quinolizin-5-one] |  | 93.6 °C | 
10 | Cn1cncc1C(c1ccc(Cl)cc1)c1cc2c3c(c1)c(-c1cccc(Cl)c1)cc(=O)n3CC2.O (racemic) (hydrate or solvate) [Compound 6, (±)-6-(3-chlorophenyl)-8-[(4-chlorophenyl)(1-methyl-1H-imidazol-5-yl)methyl]-1,2-dihydro-4H-pyrrolo[3,2,1-ij]quinolin-4-one monohydrate] |  | 147 °C | 
11 | Cn1cncc1C(c1ccc(Cl)cc1)c1cc2c3c(c1)c(-c1cccc(Cl)c1)cc(=S)n3CC2 (racemic) [Compound 27, (±)-6-(3-chlorophenyl)-8-[(4-chlorophenyl)(1-methyl-1H-imidazol-5-yl)methyl]-1,2-dihydro-4H-pyrrolo[3,2,1-ij]quinoline-4-thione] | 37.1 nM |  | 
12 | Cn1cncc1C(O)(c1ccc(Cl)cc1)c1cc2c3c(c1)c(-c1cccc(Cl)c1)cc(=O)n3CC2 (racemic) [Compound 5, (±)-6-(3-chlorophenyl)-8-[(4-chlorophenyl)hydroxy(1-methyl-1H-imidazol-5-yl)methyl]-1,2-dihydro-4H-pyrrolo[3,2,1-ij]quinolin-4-one] | 7.8 nM | 213.6 °C | 
13 | O=c1cc(-c2cccc(Cl)c2)c2cc(C(c3ccc(Cl)cc3)n3ccnc3)cc3c2n1CCC3 (racemic) [Compound 36, (±)-7-(3-chlorophenyl)-9-[(4-chlorophenyl)-1H-imidazol-1-ylmethyl]-2,3-dihydro-1H,5H-benzo[ij]quinolizin-5-one] |  |  | IC50 [1]: 21 nM
14 | Cn1cncc1C(N)(c1ccc(Cl)cc1)c1cc2c3c(c1)c(-c1cccc(Cl)c1)cc(=O)n3CC2 (centres unmarked) [Compound 10, (B)-8-[amino(4-chlorophenyl)(1-methyl-1H-imidazol-5-yl)methyl]-6-(3-chlorophenyl)-1,2-dihydro-4H-pyrrolo[3,2,1-ij]quinolin-4-on] |  |  | IC50 [2]: 3.2 nM
